Data on eleven molecules can be found in ChEMBL document CHEMBL1201862, “PubChem BioAssay data set” (2004).

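Where inhibition never reached the appropriate level, the endpoint shown equals the highest concentration tested. Otherwise, values were interpolated linearly from a five-concentration, 48-hour dose response in 96-well plates. GI50 = concentration required for 50% inhibition of growth.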 Calls of active or inactive are those of the source. Rule as the data show it: active = GI50 up to about 1.1 µM and inactive = higher.

Test systems include M14; SF-295; HL-60; CAKI-1; OVCAR-4; SNB-19; SF-539; HCC 2998; SN12C; DU-145; EKVX; UACC-62; BT-549; CCRF-CEM; RXF 393; SK-MEL-28; SK-MEL-2; HT-29; SK-OV-3; NCI-H226.
What all share (assay): inhibition of tumour cell growth, NCI panel, 48 h

Regarding `COc1cccc(NC(=O)CC(=O)N2N=C(C)C(/N=N/c3ccc(C(=O)O)cc3)C2=O)c1` (stereo not given), the GI50 with M14, in the assay with SF-295, with HL-60, in the assay with CAKI-1, with OVCAR-4 and in the assay with SNB-19 was > 100 µM (inactive) throughout. Moreover, the GI50 in the assay on SF-539 was > 100 µM (inactive); in the assay on HCC 2998, > 100 µM (inactive); in the assay with SN12C, > 100 µM (inactive); in the assay with DU-145 it was > 100 µM (inactive); with EKVX it was 25.4 µM (inactive); with UACC-62, > 100 µM (inactive). For the same molecule, the GI50 is > 100 µM (inactive) in the assay on BT-549; > 100 µM (inactive) in the assay with CCRF-CEM; > 100 µM (inactive) with RXF 393; > 100 µM (inactive) in the assay on SK-MEL-28; > 100 µM (inactive) in the assay on SK-MEL-2; 93.8 µM (inactive) in the assay on HT-29.

As to `CCOC(=O)c1cnc(N(C)C)nc1SC(=N)N`, the GI50 in the assay on SK-OV-3, in the assay with M14, with SF-295, in the assay with CAKI-1, in the assay with OVCAR-4 and with SNB-19 was > 100 µM (inactive) throughout. Also, the GI50 in the assay with SF-539, in the assay with SN12C, in the assay with DU-145, in the assay on EKVX, in the assay on UACC-62 and in the assay with BT-549 was > 100 µM (inactive) in each case. For the same molecule, the GI50 with RXF 393, with SK-MEL-28, in the assay with SK-MEL-2, with HT-29 and in the assay on NCI-H226 was > 100 µM (inactive) throughout.

Consider `c1ccc2c(c1)NC(C1OC3CCCN3C1C1Nc3ccccc3S1)S2` (stereo not given), for which the GI50 with SK-OV-3 was > 100 µM (inactive); in the assay with M14, > 100 µM (inactive); in the assay with SF-295, 90.6 µM (inactive); in the assay with HL-60 it was 20.6 µM (inactive); in the assay with CAKI-1 it was > 100 µM (inactive); in the assay with OVCAR-4, 63.4 µM (inactive). Besides, the GI50 with SNB-19, in the assay with SF-539, in the assay on HCC 2998, with SN12C, in the assay with DU-145 and in the assay with EKVX was > 100 µM (inactive) throughout. Further, the GI50 in the assay with UACC-62 was 79.8 µM (inactive); in the assay on BT-549, 78.2 µM (inactive); in the assay on CCRF-CEM it was 35.8 µM (inactive); in the assay on RXF 393 it was 21.2 µM (inactive); with SK-MEL-28, > 100 µM (inactive); in the assay with HT-29 it was 44.4 µM (inactive).

As to `CC(C)(C)c1cc(C(CO)OCCOCCO)cc(C(C)(C)C)c1O` (stereo not given), the GI50 in the assay with SK-OV-3, with M14, with SF-295, with CAKI-1, with OVCAR-4 and with SNB-19 was > 100 µM (inactive) in each case. Further, the GI50 in the assay with SF-539, in the assay on SN12C, in the assay with DU-145, in the assay with EKVX, with UACC-62 and with BT-549 was > 100 µM (inactive) in each case. Moreover, the GI50 in the assay with CCRF-CEM, in the assay on RXF 393, in the assay on SK-MEL-28, in the assay with SK-MEL-2, with HT-29 and in the assay with NCI-H226 was > 100 µM (inactive) throughout.

As to `C=CC[C@@]1(C(=O)OC)[C@H](Sc2ccccc2)C1(C)C`, the GI50 in the assay with SK-OV-3 is > 100 µM (inactive); in the assay with M14 it was 56.8 µM (inactive); in the assay with SF-295, 36.1 µM (inactive); with HL-60, 16.2 µM (inactive); in the assay with CAKI-1, 74.8 µM (inactive); in the assay with OVCAR-4, 43.7 µM (inactive). The GI50 in the assay with SNB-19 was > 100 µM (inactive); in the assay on SF-539, 35.3 µM (inactive); in the assay with HCC 2998 it was 27 µM (inactive); with SN12C, 21.1 µM (inactive); with DU-145, 67.9 µM (inactive); in the assay on EKVX, 33.3 µM (inactive). The GI50 in the assay with UACC-62 was 45.5 µM (inactive); in the assay on BT-549, 46 µM (inactive); in the assay on CCRF-CEM, 28.8 µM (inactive); in the assay on SK-MEL-28, 78.2 µM (inactive); in the assay with SK-MEL-2, 24.2 µM (inactive); in the assay with HT-29 it was 24.9 µM (inactive). Besides, in the assay with NCI-H226, the GI50 is 35.5 µM (inactive).

Regarding `CCN(CC)CCNc1ccc2nnn3c4ccc(OCCN(CC)CC)cc4c(=O)c1c23`, the GI50 in the assay with SK-OV-3 was > 100 µM (inactive); in the assay with M14 it was > 100 µM (inactive); in the assay with SF-295 it was 65.3 µM (inactive); in the assay on CAKI-1 it was 66.1 µM (inactive); in the assay on OVCAR-4, 16.3 µM (inactive); in the assay with SNB-19, 48.5 µM (inactive). Moreover, the GI50 with SF-539 was 96.8 µM (inactive); in the assay with HCC 2998, > 100 µM (inactive); in the assay on SN12C, 32.4 µM (inactive); with DU-145 it was 42.3 µM (inactive); with EKVX, 71 µM (inactive); with UACC-62, > 100 µM (inactive). In addition, the GI50 with BT-549 was > 100 µM (inactive); with CCRF-CEM, 16.4 µM (inactive); with RXF 393 it was 62.5 µM (inactive); with SK-MEL-28, > 100 µM (inactive); in the assay on SK-MEL-2, > 100 µM (inactive); in the assay with HT-29 it was 18.5 µM (inactive).

As to `CN(CC(=O)O)c1ccc(/C=C/c2ccnc3ccccc23)cc1`, the GI50 was 28.9 µM (inactive) with SK-OV-3; 22.2 µM (inactive) in the assay with M14; 18.1 µM (inactive) in the assay with SF-295; 11.4 µM (inactive) with HL-60; 18.5 µM (inactive) with CAKI-1; 30.1 µM (inactive) in the assay with SNB-19. Moreover, the GI50 was 27.9 µM (inactive) in the assay on SF-539; 25.4 µM (inactive) in the assay with HCC 2998; 25.5 µM (inactive) in the assay on SN12C; 33.6 µM (inactive) in the assay on DU-145; 4.47 µM (inactive) in the assay with EKVX; 19.6 µM (inactive) in the assay on UACC-62. Further, the GI50 in the assay with BT-549 is 16.3 µM (inactive); in the assay on CCRF-CEM it was 13.8 µM (inactive); with RXF 393 it was 14.8 µM (inactive); with SK-MEL-28, 40 µM (inactive); with SK-MEL-2, 18.8 µM (inactive); in the assay on HT-29, 23 µM (inactive).

Turning to `NC(=O)c1c(NC=O)ncn1C1OCC(O)C(O)C1O` (stereo not given), the GI50 in the assay with SK-OV-3, in the assay with SF-295, with HL-60, with CAKI-1, with OVCAR-4 and in the assay with SNB-19 was > 100 µM (inactive) throughout. Also, the GI50 with SF-539, in the assay on SN12C, in the assay on DU-145, with EKVX, with UACC-62 and in the assay on BT-549 was > 100 µM (inactive) in each case. Also, the GI50 with CCRF-CEM, in the assay with RXF 393, in the assay on SK-MEL-2, in the assay with HT-29 and in the assay on NCI-H226 was > 100 µM (inactive) throughout.

Consider `O=C1c2ccccc2C(=O)c2nn(N=P(CP(=Nn3nc4c(n3)C(=O)c3ccccc3C4=O)(c3ccccc3)c3ccccc3)(c3ccccc3)c3ccccc3)nc21`, for which the GI50 in the assay on SK-OV-3 was > 100 µM (inactive); with M14, > 100 µM (inactive); in the assay on SF-295, > 100 µM (inactive); with HL-60 it was 36.3 µM (inactive); in the assay with CAKI-1 it was > 100 µM (inactive); in the assay on OVCAR-4, > 100 µM (inactive). The GI50 in the assay on SNB-19, with SF-539, in the assay on HCC 2998, in the assay with SN12C, in the assay with DU-145 and in the assay with EKVX was > 100 µM (inactive) each time. The GI50 with UACC-62, in the assay with BT-549, with CCRF-CEM, in the assay with RXF 393, with SK-MEL-28 and with SK-MEL-2 was > 100 µM (inactive) each time. Further, the GI50 in the assay with HT-29 was > 100 µM (inactive).

In the case of `O=C1/C(=C/c2ccc(Cl)cc2)CCC/C1=C\c1ccc(O)c(CN2CCCCC2)c1`, the GI50 was 24 µM (inactive) with SK-OV-3; 20.8 µM (inactive) in the assay on M14; 14.2 µM (inactive) in the assay on SF-295; 2.13 µM (inactive) in the assay with HL-60; 18.9 µM (inactive) in the assay with CAKI-1; 20 µM (inactive) in the assay on OVCAR-4. For the same molecule, the GI50 was 33 µM (inactive) in the assay with SNB-19; 21.8 µM (inactive) with SF-539; 20.2 µM (inactive) in the assay on HCC 2998; 26.6 µM (inactive) in the assay on SN12C; 17.1 µM (inactive) in the assay on DU-145; 18.1 µM (inactive) with EKVX. Further, the GI50 in the assay with UACC-62 was 16.1 µM (inactive); in the assay with BT-549, 11.2 µM (inactive); with CCRF-CEM it was 6.01 µM (inactive); in the assay with SK-MEL-28, 21 µM (inactive); with SK-MEL-2, 42.1 µM (inactive); with HT-29, 3.54 µM (inactive). The GI50 in the assay with NCI-H226 was 16.1 µM (inactive).

Consider `Cc1cc(O)c2c(c1O)C(=O)C1=C(C2=O)C(=O)C2C(O)C1C1C(O)CC(O)=C3C(=O)c4c(O)cc(C)c(O)c4C(=O)C321` (stereo not given), for which the GI50 in the assay with SK-OV-3 is 2.24 µM (inactive); with M14 it was 2.3 µM (inactive); in the assay on SF-295 it was 0.386 µM (active); in the assay on HL-60, 1.1 µM (active); with CAKI-1 it was 1.75 µM (inactive); with OVCAR-4, 6.04 µM (inactive). Further, the GI50 is 1.2 µM (inactive) in the assay on SNB-19; 1.94 µM (inactive) with SF-539; 1.18 µM (inactive) with HCC 2998; 2.12 µM (inactive) in the assay with SN12C; 1.32 µM (inactive) in the assay with DU-145; 1.98 µM (inactive) with EKVX. The GI50 in the assay on UACC-62 is 1.12 µM (active); with BT-549, 3.66 µM (inactive); in the assay on CCRF-CEM, 0.577 µM (active); in the assay with SK-MEL-28, 1.55 µM (inactive); in the assay on SK-MEL-2, 1.73 µM (inactive); with HT-29, 0.555 µM (active). In the assay on NCI-H226, the GI50 is 0.885 µM (active).
